Reference: ChEMBL document CHEMBL1140105, “Synthesis of bivalent beta2-adrenergic and adenosine A1 receptor ligands” (J Med Chem, 2008)
Activity calls are given as the source filed them. No cut-off for these calls is given here.

What was measured:
[1] = Displacement of [3H]DPCPX from adenosine A1 receptor in Syrian hamster DDT1 MF2 cells; type: cell-based, Mesocricetus auratus
[2] = biological target: Beta-2 adrenergic receptor (Mesocricetus auratus) (UniProt P04274); test: Displacement of [125I](-)-iodopindolol from adrenergic beta2 receptor in Syrian hamster DDT1 MF2 cells at 10 uM; type: cell-based
[3] = biological target: Beta-2 adrenergic receptor (Mesocricetus auratus) (UniProt P04274); test: Agonist activity at adrenergic beta2 receptor in Syrian hamster DDT1 MF2 cells assessed as stimulation of cAMP accumulation up to 100 uM by radioimmunoassay in presence of 1 uM DPCPX; type: functional, cell-based
[4] = biological target: T1, Beta-2 adrenergic receptor (Mesocricetus auratus, UniProt P04274); test: Displacement of [125I](-)-iodopindolol from adrenergic beta2 receptor in Syrian hamster DDT1 MF2 cells; type: cell-based
[5] = biological target: Beta-2 adrenergic receptor (Mesocricetus auratus) (UniProt P04274); test: Agonist activity at adrenergic beta2 receptor in Syrian hamster DDT1 MF2 cells assessed as stimulation of cAMP accumulation by radioimmunoassay in presence of 1 uM DPCPX relative to (-)-isoproterenol; type: functional, cell-based
[6] = biological target: T1, Beta-2 adrenergic receptor; test: Agonist activity at adrenergic beta2 receptor in Syrian hamster DDT1 MF2 cells assessed as stimulation of cAMP accumulation by radioimmunoassay in presence of 1 uM DPCPX; type: functional, cell-based

T1 sequence (P04274 whole entry): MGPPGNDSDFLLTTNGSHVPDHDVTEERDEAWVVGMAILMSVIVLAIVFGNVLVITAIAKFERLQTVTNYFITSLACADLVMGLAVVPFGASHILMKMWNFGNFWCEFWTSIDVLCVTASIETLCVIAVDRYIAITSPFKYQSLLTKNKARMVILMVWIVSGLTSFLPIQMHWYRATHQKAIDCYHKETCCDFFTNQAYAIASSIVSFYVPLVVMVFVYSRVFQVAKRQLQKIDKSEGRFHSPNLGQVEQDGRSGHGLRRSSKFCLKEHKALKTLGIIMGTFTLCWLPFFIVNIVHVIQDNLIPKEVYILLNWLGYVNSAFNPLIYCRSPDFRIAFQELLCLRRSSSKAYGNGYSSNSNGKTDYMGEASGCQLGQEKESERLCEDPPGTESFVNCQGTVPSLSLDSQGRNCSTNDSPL
Sequence of Beta-2 adrenergic receptor (Mesocricetus auratus) (P04274 whole entry, looked up): as the sequence (P04274 whole entry) above

Row | SMILES | Ki [1] [nM] | inhibition [2] [%] | Activity [3] | Ki [4] [nM] | Activity [5] [%] | EC50 [6] [nM]
1 | Nc1cc(C(O)CNCCNc2ncnc3c2ncn3[C@@H]2O[C@H](CO)[C@@H](O)[C@H]2O)ccc1O (stereo not given in full) | 2750 | 20 | inactive | > 10000 | 50 | –
2 | Nc1cc(C(O)CNCCCCNc2ncnc3c2ncn3[C@@H]2O[C@H](CO)[C@@H](O)[C@H]2O)ccc1O (stereo not given in full) | – | – | – | – | – | 1090
3 | O=CNc1cc(C(O)CNCCNc2ncnc3c2ncn3[C@@H]2O[C@H](CO)[C@@H](O)[C@H]2O)ccc1O (stereo not given in full) | 1980 | 20 | inactive | > 10000 | – | –
